Columns and labels:
SK-OV-3 = assay: Cytotoxicity test to cancer cell lines (SRB method), SK-OV-3; type: cell-based; conditions: Homo sapiens, SK-OV-3, 48 h, read-out: Cytotoxicity ED50 SK-OV-3
HCT-15 = assay: Cytotoxicity test to cancer cell lines (SRB method), HCT-15; conditions: Homo sapiens, HCT-15, 48 h, read-out: Cytotoxicity ED50 HCT15
Experimental: (§1) Cytotoxicity to A549 (Korea Research Institute of Chemical Technology), SK-OV-3 (Korea Research Institute of Chemical Technology), SK-MEL-2 (Korea Research Institute of Chemical Technology), HCT-15 (Korea Research Institute of Chemical Technology) and MCF7 (Korean Cell Line Bank, Seoul National University School of medicine) cells was measured by Sulforhodamin-B (SRB) method (1989, National Cancer Institute (NCI)) which was developed for the measurement of in vitro anticancer activity of a drug. Cells were separated using 0.25% trypsin-EDTA solution, leading to the preparation of a cell suspension by 5×10^318 2×10^4 cells/well. Then, the suspension was distributed into a 96 well plate by 100 μl/well, which was cultured in a 37° C., 5% CO2 incubator for 24 hours. Compounds prepared in examples of the present invention were used as a sample. Precisely, the compound was dissolved in dimethylsulfoxide and diluted with RPMI 1640 medium before being used as a sample. The final concentration of the sample used varied ranging 1 μM˜0.00001 μM. The medium was removed from the 96 well plate and then diluted sample solution was added by 100 μl/well, followed by further culture in a 37° C., 5% CO2 incubator for 48 hours. Tz (time zero) plate was collected from the point of adding the sample. Upon completing the culture, the medium was removed from each well along with Tz plate, then 10% trichloroacetic acid (TCA) was added by 100 μl/well. The plate was left at 4° C. for 1 hour to let cells be fixed on the floor of the plate. After cells were fixed completely, the plate was washed with water 5-6 times to remove the remaining trichloroacetic acid solution completely and moisture was completely dried at room temperature. 0.4% Sulforhodamine-B was dissolved in 1% acetic acid solution to prepare a staining solution. Cells were stained for 30 minutes with a dye added by 100 μl to each well of the completely dried plate. Then, the plate was washed with 1% acetic acid solution 5-6 times to remove sulforhodamine-B remained uncombined with cells. Then, the plate was dried at room temperature. 10 mM Tris solution was added by 100 μ/well thereto to dissolve the dye, and optical density (OD) was measured at 520 nm with a micro plate reader.
(§2) ED50 (concentration that inhibits cancer cell growth 50%, 5.0% effective dose, nM/ml) of the sample to cancer cell was calculated as follows. OD value at the point of beginning the culture with the sample was determined as Tz (time zero) value. OD value of a well to be cultured without the sample was determined as a control value (C). OD value of a well pretreated with the sample was determined as experimental value (T). After calculating Tz, C and T, cytotoxicity of the sample was measured by the below <Mathematical Formula 1>. T≦Tz, (T−Tz)/(C−Tz)×100 T>Tz, (T−Tz)/Tz×10,0 <Mathematical Formula 1>
(§3) ED50, the concentration that can inhibit cancer cell growth by 50%, was calculated by using a regression analysis of lotus program based on the degree of cytotoxicity obtained by the <Mathematical Formula 1>.

MCF7 = assay: Cytotoxicity test to cancer cell lines (SRB method), MCF7; conditions: read-out: Cytotoxicity ED50 MCF-7, MCF-7, 48 hours
Experimental: as §1, §2, §3

A549 = assay: Cytotoxicity test to cancer cell lines (SRB method), A549; conditions: Homo sapiens, A549, 48 h, read-out: Cytotoxicity ED50 A549
Experimental: as §1, §2, §3

SK-MEL-2 = assay: Cytotoxicity test to cancer cell lines (SRB method), SK-MEL-2; type: cell-based; conditions: Homo sapiens, SK-MEL-2, 48 h, read-out: Cytotoxicity ED50 SK-MEL-2

Compound	EC50 (SK-OV-3) [nM]	EC50 (HCT-15) [nM]	EC50 (MCF7) [nM]	EC50 (A549) [nM]	EC50 (SK-MEL-2) [nM]
COc1cc2c(c(OC)c1OC)-c1ccc(SC)c(=O)cc1[C@@H](NC(=O)c1cc(F)cc(CON=O)c1)CC2 [Example 37, 3-fluoro-5-nitrosooxymethyl-N-[(7S)-1,2,3-trimethoxy-10-methylsulfanyl-9-oxo-5,6,7,9-tetrahydro-benzo[a]heptalen-7-yl]-benzamide]	38.8	7.5	10.3	> 50	9.4
COc1cc2c(c(OC)c1OC)-c1ccc(SC)c(=O)cc1[C@@H](N(C)C(=O)c1cccc(CO[N+](=O)[O-])c1)CC2 [Example 41, 3-nitrooxymethyl-N-methyl-N-[(7S)-1,2,3-trimethoxy-10-methylsulfanyl-9-oxo-5,6,7,9-tetrahydro-benzo[a]heptalen-7-yl]-benzamide]	> 50	36.4	47.3	> 50	> 50
COc1cc2c(c(OC)c1OC)-c1ccc(SC)c(=O)cc1[C@@H](NC(=O)c1cccc(COC(=O)CCCO[N+](=O)[O-])c1)CC2 [Example 34, 4-nitrooxybutyric acid-3-[(7S)-1,2,3-trimethoxy-10-methylsulfanyl-9-oxo-5,6,7,9-tetrahydro-benzo[a]heptalen-7-yl-carbamoyl]-benzylester]	0.01	0.01	0.01	0.06	0.01
COc1cc2c(c(OC)c1OC)-c1ccc(SC)c(=O)cc1[C@@H](NC(=O)c1ccccc1SN=O)CC2 [Example 35, 2-nitrosothio-N-[(7S)-1,2,3-trimethoxy-10-methylsulfanyl-9-oxo-5,6,7,9-tetrahydro-benzo[a]heptalen-7-yl]-benzamide]	> 50	20.9	24.7	> 50	41.9
COc1c(OC2CCCC2)cc2c(c1OC)-c1ccc(SC)c(=O)cc1[C@@H](NC(=O)c1cc(F)cc(CO[N+](=O)[O-])c1)CC2 [Example 15, N-[(7S)-3-cyclopentyloxy-1,2-dimethoxy-10-methylsulfanyl-9-oxo-5,6,7,9-tetrahydro-benzo[a]heptalen-7-yl]-3-fluoro-5-nitrooxymethyl-benzamide]	> 50	23.4	18.8	30.2	22.5
COc1c(OC2CCCC2)cc2c(c1OC)-c1ccc(SC)c(=O)cc1[C@@H](NC(=O)c1cccc(CO[N+](=O)[O-])c1)CC2 [Example 7, N-[(7S)-3-cyclopentyloxy-1,2-dimethoxy-10-methylsulfanyl-9-oxo-5,6,7,9-tetrahydro-benzo[a]heptalen-7-yl]-3-nitrooxymethyl-benzamide]	> 50	> 50	> 50	> 50	> 50
COc1cc2c(c(OC)c1OC)-c1ccc(SC)c(=O)cc1[C@@H](NC(=O)c1cccc(CO[N+](=O)[O-])c1F)CC2 [Example 10, 2-fluoro-3-nitrooxymethyl-N-[(7S)-1,2,3-trimethoxy-10-methylsulfanyl-9-oxo-5,6,7,9-tetrahydro-benzo[a]heptalen-7-yl]-benzamide]	0.23	0.39	0.09	0.28	0.12
COc1cc2c(c(OC)c1OC)-c1ccc(SC)c(=O)cc1[C@@H](NC(=O)c1cc(F)cc(CSN=O)c1)CC2 [Example 39, 3-fluoro-5-nitrosothiomethyl-N-[(7S)-1,2,3-trimethoxy-10-methylsulfanyl-9-oxo-5,6,7,9-tetrahydro-benzo[a]heptalen-7-yl]-benzamide]	28.2	9.9	5	40.7	> 50
COc1cc2c(c(OC)c1OC)-c1ccc(SC)c(=O)cc1[C@@H](N(C)C(=O)c1cc(F)cc(CO[N+](=O)[O-])c1)CC2 [Example 42, 3-fluoro-N-methyl-5-nitrooxymethyl-N-[(7S)-1,2,3-trimethoxy-10-methylsulfany-9-oxo-5,6,7,9-tetrahydro-benzo[a]heptalen-7-yl]-benzamide]	> 50	> 50	> 50	> 50	> 50
COc1c(OC2CCCC2)cc2c(c1OC)-c1ccc(SC)c(=O)cc1[C@@H](NC(=O)c1cccc(CO[N+](=O)[O-])c1F)CC2 [Example 11, N-[(7S)-3-cyclopentyloxy-1,2-dimethoxy-10-methylsulfanyl-9-oxo-5,6,7,9-tetrahydro-benzo[a]heptalen-7-yl]-2-fluoro-3-nitrooxymethyl-benzamide]	> 50	> 50	39	> 50	> 50
COc1cc2c(c(OC)c1OC)-c1ccc(SC)c(=O)cc1[C@@H](NC(=O)c1ccc(CO[N+](=O)[O-])cc1O)CC2 [Example 20, 2-hydroxy-4-nitrooxymethyl-N-[(7S)-1,2,3-trimethoxy-10-methylsulfanyl-9-oxo-5,6,7,9-tetrahydro-benzo[a]heptalen-7-yl]-benzamide]	1.83	1.03	1.15	3.93	2.47
CCOc1cc2c(c(OC)c1OC)-c1ccc(SC)c(=O)cc1[C@@H](NC(=O)c1cc(F)cc(CO[N+](=O)[O-])c1)CC2 [Example 13, N-[(7S)-3-ethoxy-1,2-dimethoxy-10-methylsulfanyl-9-oxo-5,6,7,9-tetrahydro-benzo[a]heptalen-7-yl)-3-fluoro-5-nitrooxymethyl-benzamide]	0.18	0.11	0.02	0.13	0.04
COc1cc2c(c(OC)c1OC)-c1ccc(SC)c(=O)cc1[C@@H](NC(=O)c1cc(CO[N+](=O)[O-])cs1)CC2 [Example 21, 4-nitrooxymethyl-thiophene-2-carboxylic acid [(7S)-1,2,3-trimethoxy-10-methylsulfanyl-9-oxo-5,6,7,9-tetrahydro-benzo[a]heptalen-7-yl]-amide]	0.59	0.13	0.1	0.97	0.29
COc1cc2c(c(OC)c1OC)-c1ccc(SC)c(=O)cc1[C@@H](NC(=O)c1sccc1CO[N+](=O)[O-])CC2 [Example 22, 3-nitrooxymethyl-thiophene-2-carboxylic acid [(7S)-1,2,3-trimethoxy-10-methylsulfanyl-9-oxo-5,6,7,9-tetrahydro-benzo[a]heptalen-7-yl]-amide]	1.41	0.95	0.21	1.11	0.87
COc1c(OC(C)C)cc2c(c1OC)-c1ccc(SC)c(=O)cc1[C@@H](NC(=O)c1cccc(CO[N+](=O)[O-])c1)CC2 [Example 3, N-[(7S)-3-isopropoxy-1,2-dimethoxy-10-methylsulfanyl-9-oxo-5,6,7,9-tetrahydro-benzo[a]heptalen-7-yl]-3-nitrooxymethyl-benzamide]	4	4.8	2.3	2.4	1
CCOc1cc2c(c(OC)c1OC)-c1ccc(SC)c(=O)cc1[C@@H](NC(=O)c1cccc(CO[N+](=O)[O-])c1)CC2 [Example 4, N-[(7S)-3-ethoxy-1,2-dimethoxy-10-methylsulfanyl-9-oxo-5,6,7,9-tetrahydro-benzo[a]heptalen-7-yl]-3-nitrooxymethyl-benzamide]	0.01	0.03	0.01	0.01	0.01

Reference: US20070179143A1 (priority 2003, published 2007)
